This is an account of results in patent publication EP4104902B1, “COMPOUNDS AND M[…] SAME” (priority 2020, dated 2021).

One assay has as its system recombinant rabies virus 1088 strain expressing Gaussia Luciferase (GLuc) (1088/GLuc). Type of assay: cell-based. The conditions noted are these: read-out: Anti-rabies activity.
As for `CC(C)CC[C@@H]1[C@@H]2[C@@H]3CN[C@@]1(C(=O)NCc1ccc(F)cc1)C[C@@H]3CN2CC(N)=O` (relative stereo) [IF-95], the IC50 lay within 10 to 30 µM.

`CC(C)CNC(=O)[C@]12NC[C@@H]3C[C@H]1CN(Cc1ccc(F)cc1)[C@H]2[C@@H]3CCc1ccccc1` (relative stereo) [IB-774]: the IC50 is less than 5 µM.

For the compound `CC(C)CCN1C[C@@H]2C[C@H]3CN[C@]2(C(=O)NCCC(N)=O)[C@@H]1[C@@H]3Cc1cccc2ccccc12` (relative stereo) [IB-703], the IC50 is less than 5 µM.

Turning to `CC(C)C[C@@H]1[C@@H]2[C@@H]3CN[C@@]1(C(=O)NCc1cccc4ccccc14)C[C@@H]3CN2Cc1ccc(O)cc1` (relative stereo) [IF-578], the IC50 was less than 5 µM.

Turning to `CC(C)CNC(=O)[C@@]12C[C@@H]3CN(Cc4ccc(F)cc4)[C@@H]([C@@H]3CN1)[C@H]2CCc1ccccc1` (relative stereo) [IF-652], the IC50 is less than 5 µM.

`N=C(N)NCCCC1C2CNC3(C(=O)NCc4ccc(F)cc4)C(C2)CN(Cc2ccc(O)cc2)C13` (centres unmarked) [IB-207]: the IC50 lay within 10 to 30 µM.

In the case of `CC(C)CN1C[C@H]2C[C@]3(C(=O)NCc4cccc5ccccc45)NC[C@H]2[C@H]1[C@H]3Cc1cccc2ccccc12` (relative stereo) [IF-778], the IC50 was less than 5 µM.

Consider `CC(C)CCN1C[C@H]2C[C@]3(C(=O)NCc4cccc5ccccc45)NC[C@H]2[C@H]1[C@H]3CC(C)C` (relative stereo) [IF-705], for which the IC50 is less than 5 µM.

With `O=C(O)CCNC(=O)C12CC3CN(Cc4ccc(F)cc4)C(C3CN1)C2Cc1cccc2ccccc12` (centres unmarked) [IF-417], the IC50 fell in the range of 10 to 30 µM.

Regarding `CC(C)CCN1C[C@@H]2C[C@H]3CN[C@]2(C(=O)NCc2ccccc2)[C@@H]1[C@@H]3Cc1ccccc1` (relative stereo) [IB-9], the IC50 was 10 to 30 µM.

As to `CC(C)CN1C[C@H]2C[C@]3(C(=O)NCc4ccccc4)NC[C@H]2[C@H]1[C@H]3CCc1ccccc1` (relative stereo) [IF-11], the IC50 is 10 to 30 µM.

As for `CC(C)CCC1C2C3CNC1(C(=O)NCc1cccc4ccccc14)CC3CN2CCC(=O)O` (centres unmarked) [IF-422], the IC50 was in the range of 10 to 30 µM.

On to `O=C(NCCO)[C@@]12C[C@@H]3CN(Cc4ccccc4)[C@@H]([C@@H]3CN1)[C@H]2Cc1cccc2ccccc12` (relative stereo) [IF-624], for which the IC50 was 10 to 30 µM.

As to `N=C(N)NCCCNC(=O)[C@]12NC[C@@H]3C[C@H]1CN(Cc1ccccc1)[C@H]2[C@@H]3Cc1ccccc1` (relative stereo) [IB-276], the IC50 is 10 to 30 µM.

Take `O=C(O)CCN1CC2CC3(C(=O)NCCO)NCC2C1C3Cc1cccc2ccccc12` (centres unmarked) [IF-452]: the IC50 was in the range of 10 to 30 µM.

As to `CC(C)CC[C@@H]1[C@@H]2CN[C@@]3(C(=O)NCCC(N)=O)[C@@H](C2)CN(CC2CCCCC2)[C@@H]13` (relative stereo) [IB-357], the IC50 is 10 to 30 µM.

Regarding `O=C(NCc1ccccc1)[C@]12NC[C@@H]3C[C@H]1CN(CCO)[C@H]2[C@@H]3Cc1ccccc1` (relative stereo) [IB-619], the IC50 fell in the range of 10 to 30 µM.

On to `CC(C)C[C@@H]1[C@@H]2CN[C@@]3(C(=O)NCc4ccccc4)[C@@H](C2)CN(CCc2ccccc2)[C@@H]13` (relative stereo) [IB-757], for which the IC50 was less than 5 µM.

As for `CC(C)CC[C@@H]1[C@@H]2[C@@H]3CN[C@@]1(C(=O)NCc1ccccc1)C[C@@H]3CN2CC(C)C` (relative stereo) [IF-675], the IC50 was less than 5 µM.

`NC(=O)CCNC(=O)[C@@]12C[C@@H]3CN(CC4CCCCC4)[C@@H]([C@@H]3CN1)[C@H]2Cc1cccc2ccccc12` (relative stereo) [IF-536]: the IC50 was less than 5 µM.

`CC(C)C[C@@H]1[C@@H]2CN[C@@]3(C(=O)NCCO)[C@@H](C2)CN(Cc2cccc4ccccc24)[C@@H]13` (relative stereo) [IB-643]: the IC50 lay within 10 to 30 µM.

In the case of `NC(=O)C[C@@H]1[C@@H]2[C@@H]3CN[C@@]1(C(=O)NCCc1ccccc1)C[C@@H]3CN2Cc1ccc(F)cc1` (relative stereo) [IF-269], the IC50 is 10 to 30 µM.

Consider `N=C(N)NCCC[C@@H]1[C@@H]2[C@@H]3CN[C@@]1(C(=O)NCCO)C[C@@H]3CN2Cc1cccc2ccccc12` (relative stereo) [IF-239], for which the IC50 is 10 to 30 µM.

Regarding `O=C(O)CCC1C2CNC3(C(=O)NCc4cccc5ccccc45)C(C2)CN(CC2CCCCC2)C13` (centres unmarked) [IB-389], the IC50 was in the range of 10 to 30 µM.

`CC(C)CCNC(=O)[C@@]12C[C@@H]3CN(Cc4ccc(O)cc4)[C@@H]([C@@H]3CN1)[C@H]2Cc1cccc2ccccc12` (relative stereo) [IF-684]: the IC50 lay within 10 to 30 µM.

In the case of `CC(C)CNC(=O)[C@@]12C[C@@H]3CN(CC(C)C)[C@@H]([C@@H]3CN1)[C@H]2Cc1cccc2ccccc12` (relative stereo) [IF-680], the IC50 is 10 to 30 µM.

Consider `CCCCCCNC(=O)[C@]12NC[C@@H]3C[C@H]1CN(Cc1ccccc1)[C@H]2[C@@H]3CCCNC(=N)N` (relative stereo) [IB-249], for which the IC50 fell in the range of 10 to 30 µM.

Regarding `CCCCCCNC(=O)[C@@]12C[C@@H]3CN(CC(N)=O)[C@@H]([C@@H]3CN1)[C@H]2CCc1ccccc1` (relative stereo) [IF-109], the IC50 lay within 10 to 30 µM.

Take `CCCCCCNC(=O)[C@@]12C[C@@H]3CN(CCc4ccccc4)[C@@H]([C@@H]3CN1)[C@H]2Cc1ccccc1` (relative stereo) [IF-602]: the IC50 fell in the range of 10 to 30 µM.

With `CC(C)CN1CC2CC3(C(=O)NCc4ccc(F)cc4)NCC2C1C3Cc1ccccc1` (centres unmarked) [IF-815], the IC50 was less than 5 µM.

Take `CC(C)CC[C@@H]1[C@@H]2CN[C@@]3(C(=O)NCCC(N)=O)[C@@H](C2)CN(Cc2ccccc2)[C@@H]13` (relative stereo) [IB-274]: the IC50 was 10 to 30 µM.

Consider `COc1ccc(CN2CC3CC4CNC3(C(=O)NCc3ccccc3)C2C4CC(C)C)cc1` (centres unmarked) [IB-866], for which the IC50 was in the range of 5 to 10 µM.

Take `O=C(NCCO)[C@]12NC[C@@H]3C[C@H]1CN(Cc1ccc(F)cc1)[C@H]2[C@@H]3CCc1ccccc1` (relative stereo) [IB-669]: the IC50 is 10 to 30 µM.

In the case of `CCCCCCNC(=O)C12NCC3CC1CN(CC(N)=O)C2C3Cc1cccc2ccccc12` (centres unmarked) [IB-110], the IC50 was less than 5 µM.

As to `O=C(NCc1cccc2ccccc12)C12NCC3CC1CN(Cc1cccc4ccccc14)C2C3CCc1ccccc1` (centres unmarked) [IB-804], the IC50 is less than 5 µM.

As for `CCCCCCNC(=O)[C@@]12C[C@@H]3CN(CCC(C)C)[C@@H]([C@@H]3CN1)[C@H]2Cc1ccccc1` (relative stereo) [IF-599], the IC50 lay within 10 to 30 µM.

Take `N=C(N)NCCCN1C[C@@H]2C[C@H]3CN[C@]2(C(=O)NCc2ccc(F)cc2)[C@@H]1[C@@H]3Cc1ccccc1` (relative stereo) [IB-182]: the IC50 was in the range of 10 to 30 µM.

For `CCCCCCNC(=O)[C@@]12C[C@@H]3CN(Cc4ccccc4)[C@@H]([C@@H]3CN1)[C@H]2CCCNC(=N)N` (relative stereo) [IF-285], the IC50 lay in the range of 10 to 30 µM.

For `NC(=O)CN1C[C@@H]2C[C@H]3CN[C@]2(C(=O)NCc2ccc(F)cc2)[C@@H]1[C@@H]3CCc1ccccc1` (relative stereo) [IB-95], the IC50 was less than 5 µM.

As to `O=C(NCc1cccc2ccccc12)[C@@]12C[C@@H]3CN(CCO)[C@@H]([C@@H]3CN1)[C@H]2Cc1ccc(O)cc1` (relative stereo) [IF-543], the IC50 fell in the range of 10 to 30 µM.

With `CC(C)C[C@@H]1[C@@H]2[C@@H]3CN[C@@]1(C(=O)NCCc1ccccc1)C[C@@H]3CN2Cc1ccccc1` (relative stereo) [IF-721], the IC50 was less than 5 µM.

As for `N=C(N)NCCC[C@@H]1[C@@H]2CN[C@@]3(C(=O)NCCc4ccccc4)[C@@H](C2)CN(Cc2ccccc2)[C@@H]13` (relative stereo) [IB-247], the IC50 lay within 10 to 30 µM.

Regarding `N=C(N)NCCC[C@@H]1[C@@H]2CN[C@@]3(C(=O)NCc4ccc(F)cc4)[C@@H](C2)CN(Cc2ccccc2)[C@@H]13` (relative stereo) [IB-250], the IC50 was in the range of 10 to 30 µM.

Consider `CC(C)C[C@@H]1[C@@H]2CN[C@@]3(C(=O)NCc4ccccc4)[C@@H](C2)CN(Cc2ccc(F)cc2)[C@@H]13` (relative stereo) [IB-773], for which the IC50 is less than 5 µM.

On to `N=C(N)NCCCN1C[C@@H]2C[C@H]3CN[C@]2(C(=O)NCCc2ccccc2)[C@@H]1[C@@H]3Cc1cccc2ccccc12` (relative stereo) [IB-327], for which the IC50 was 10 to 30 µM.

For `CC(C)C[C@@H]1[C@@H]2CN[C@@]3(C(=O)NCCO)[C@@H](C2)CN(CCc2ccccc2)[C@@H]13` (relative stereo) [IB-641], the IC50 lay within 10 to 30 µM.

Regarding `CC(C)C[C@@H]1[C@@H]2[C@@H]3CN[C@@]1(C(=O)NCc1ccccc1)C[C@@H]3CN2Cc1ccc(F)cc1` (relative stereo) [IF-650], the IC50 was less than 5 µM.

Consider `CCCCCCNC(=O)C12NCC3CC1CN(CCO)C2C3CC(C)C` (centres unmarked) [IB-477], for which the IC50 is less than 5 µM.

In the case of `CCCCCCNC(=O)[C@]12NC[C@@H]3C[C@H]1CN(CCC(C)C)[C@H]2[C@@H]3CC(C)C` (relative stereo) [IB-551], the IC50 was less than 5 µM.

Take `CC(C)CN1C[C@H]2C[C@]3(C(=O)NCc4ccc(O)cc4)NC[C@H]2[C@H]1[C@H]3Cc1cccc2ccccc12` (relative stereo) [IF-500]: the IC50 lay within 10 to 30 µM.

`CC(C)CC[C@@H]1[C@@H]2CN[C@@]3(C(=O)NCc4ccc(O)cc4)[C@@H](C2)CN(CC(C)C)[C@@H]13` (relative stereo) [IB-465]: the IC50 was 10 to 30 µM.

Consider `CCCCCCNC(=O)[C@@]12C[C@@H]3CN(CCC(C)C)[C@@H]([C@@H]3CN1)[C@H]2CC(C)C` (relative stereo) [IF-546], for which the IC50 lay within 10 to 30 µM.

Consider `O=C(O)CCNC(=O)C12CC3CN(CC4CCCCC4)C(C3CN1)C2Cc1cccc2ccccc12` (centres unmarked) [IF-416], for which the IC50 was in the range of 10 to 30 µM.

On to `Cc1ccc(CNC(=O)[C@@]23C[C@@H]4CN(CCC(C)C)[C@@H]([C@@H]4C=N2)[C@H]3Cc2ccccc2)cc1` (relative stereo) [IIF-328], for which the IC50 was less than 5 µM.

With `CC(C)C[C@@H]1[C@@H]2CN[C@@]3(C(=O)NCCCNC(=N)N)[C@@H](C2)CN(Cc2cccc4ccccc24)[C@@H]13` (relative stereo) [IB-350], the IC50 lay in the range of 10 to 30 µM.

Regarding `O=C(NCCO)[C@]12NC[C@@H]3C[C@H]1CN(Cc1ccccc1)[C@H]2[C@@H]3CCc1ccccc1` (relative stereo) [IB-681], the IC50 lay within 10 to 30 µM.

For `CCCCCCNC(=O)C12NCC3CC1CN(CC(N)=O)C2C3CCc1ccccc1` (centres unmarked) [IB-109], the IC50 was in the range of 10 to 30 µM.

Still in this assay, the particulars now being: read-out: IC50.
Take `CC(C)CCN1C[C@@H]2C[C@H]3CN[C@]2(C(=O)NCc2ccccc2)[C@@H]1[C@@H]3Cc1ccccc1` (relative stereo) [IB-9]: the IC50 was 17 µM.

`CC(C)CN1C[C@H]2C[C@]3(C(=O)NCc4ccccc4)NC[C@H]2[C@H]1[C@H]3CCc1ccccc1` (relative stereo) [IF-11]: the IC50 came out at 17.5 µM.
